Structures are written as SMILES. In brackets after ≈: the same amount, converted by molar mass. Several values for one entry are separate records, joined by “and”; a condition that tells them apart may be missing. Equal values may be shown once. Entries after “also recorded” stand apart in the source; their conditions may differ.

Data set [1] concerns cysteine heptapeptide (Ac-RFAACAA-COOH) and lysine heptapeptide (Ac-RFAAKAA-COOH). The experiment in a line: Direct Peptide Reactivity Assay (DPRA). Type of data set: biochemical. As to conditions: from mean peptide depletion. The protocol: The assay was conducted on N1-N13 in triplicates with the respective solvent used to prepare compound stock solutions as control. A stock concentration of 20 mM was prepared instead of the recommended 100 mM by OECD due to scarcity of compounds. The various constituents of the incubation mixture were freshly prepared to prevent stability issues that could cause variations in results. An incubation mixture with the recommended peptide to test compound ratios of 1:10 for cysteine heptapeptide and 1:50 for lysine heptapeptide (OECD. Test No. 442C: In Chemico Skin Sensitisation 2020) was prepared then incubated at 25° C. for 24 h in a shaking incubator (Toxicol Sci. 2012; 129(2):421-31).
At 24 h, the incubation mixture was quenched with 75 μL of 95% ACN/H2O containing 200 μM Leucine Enkephalin (Internal Standard). For cysteine DPRA, 100 μL of quenched mixture was spiked into 90 μL of 2% ACN/H2O and 10 μL of freshly prepared 0.016 mM 1,4-Dithiothreitol (DTT) solution. DTT maintains the integrity of thiol groups by preventing the dimerization of thiol groups and degradation of di-adducts to mono-adducts. This second mixture was then incubated at 40° C. for 30 min in a shaking incubator. For lysine DPRA, 10 μL of quenched mixture was spiked into 190 μL of 2% ACN/H2O. All 200 μL of mixtures were transferred into a 96-well plate and sent for analysis with Liquid Chromatography-Tandem Mass Spectrometry (LC-MS/MS).

Data set [2] can be described thus: Thermodynamic solubility assay (modified shake flask, LC-MS/MS). As to conditions: Milli-Q water, pH=7, 25° C., 24 h, 3 separate determinations; for solubility at 24 h: 25 °C, pH 7, water, thermodynamic from solid. The method, boiled down:
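Excess compound was shaken in water (pH 7) at 300 rpm and 25° C for 24 h. The supernatant was cleared by two centrifugations at 23,000 g for 20 min. Concentration was quantified by LC-MS/MS (ESI+) against a four-point standard curve.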

A short description of data set [3]: Skin permeation study, Franz diffusion cell. It counts as in vitro ADME, porcine. As to conditions: for Cumulative amount at 8th hour: 1% w/v in deionized water; for Cumulative amount at 8th hour / Cumulative amount comparison of PPD vs derivatives (times less than PPD) / Permeated through skin into receptor / Recovered in donor compartment / Recovered in skin / Recovered in skin outside diffusion area / Recovered in skin swabs / Recovered on parafilm and in washes: 8 h; for Permeated through skin into receptor / Recovered in donor compartment / Recovered in skin / Recovered in skin outside diffusion area / Recovered in skin swabs / Recovered on parafilm and in washes: mass balance; for recovery at 8 h, 1 % w/v: pig, end of 8 h, read-out: Total recovery (mean percentage parent compound recovery). The procedure:
In each Franz cell, a piece of pig ear skin prepared to a thickness of […] was clamped securely. 5 mL of PBS solution was added to the receiver compartment which was purged of air bubbles to ensure maximal contact of the skin piece with the solution. Donor solution was prepared by dissolving N1-N13 in deionized water at 1% w/v, and 900 μL was added to the donor compartment. The study was conducted for 8 h, and aliquots of 200 μL were removed from the receiver solution and topped up with fresh PBS at each timepoint of 15-minutes intervals for the first hour and every hour after that.
For mass balance, at the end of 8 h, skin pieces and swabs of the top and bottom surface of the skin were collected and stored in ACN for N1-N13 extraction. Donor solution and receiver solution were also collected.
The aliquot samples collected were subjected to 2-step extraction using 750 μL of dichloromethane (DCM). […] The solvent was dried using the TurboVap, and then reconstituted with 198 μL of 0.1% formic acid in 50% methanol in water and spiked with 2 μL of ANP (internal standard). The processed aliquot samples and mass balance samples were then sent for analysis using LC-MS/MS. The compounds' steady state fluxes and permeability coefficients were then calculated by fitting the solution to Fick's […] of diffusion at the steady state (linear part) of each experimental cumulative amount curve.

The subject of data set [4] is IL-8. Description: IL-8 release assay (ELISA) in THP-1 cells. Type of data set: cell-based, human. Particulars: CV75 dose, 24 h. The procedure: (§1) CV75 values (concentration showing 75% of THP-1 cell survival) were determined as per the procedure described above in section A of this method. The IL-8 and IL-1α release assay was performed as described in Toxicol In Vitro. 2003, 17(3), 311-321. A Chemokine immunosorbent assay Bio-legend ELISA Max kit was used to quantify the levels of available IL-8 and IL-1α protein. The supernatant media of untreated THP-1 cells was treated with standards, test samples N1-N13 and DMSO in 96 well plate and then was recovered after 24 h of culture. IL-8 and IL-1α was measured by ELISA in 96-well microtiter plates according to the manufacturer protocol (Biolegend, ELISA MAX™, Singapore).

Data set [5] relates to IL-1α. The experiment in a line: IL-1α release assay (ELISA) in THP-1 cells. Type of data set: cell-based, human. Particulars: CV75 dose, 24 h. The protocol:
as §1

For the molecule `CCC(=O)COc1cc(N)ccc1N` [Compound N11, 1-(2,5-diaminophenoxy)butan-2-one], in data set [1], the “sensitizing potential (DPRA)” value is reported as “moderate sensitizers”. The molecule further displayed a solubility at 24 h in data set [2] of 45 mg/mL (≈ 232 mM). Moreover, in data set [3], the “Cumulative amount at 8th hour” value is listed as 0.00794 μg/cm^2, the “Cumulative amount comparison of PPD vs derivatives (times less than PPD)” value was found to be 680, the “Permeated through skin into receptor” value is listed as <0.001 % of applied compound dose and the “Recovered in donor compartment” value is listed as 93.7 % of applied compound dose. In data set [3], the Recovered in skin was 0.06 % of applied compound dose; the “Recovered in skin outside diffusion area” value is 0.002 % of applied compound dose; the “Recovered in skin swabs” value is 0.025 % of applied compound dose; the “Recovered on parafilm and in washes” value is 0.005 % of applied compound dose. In addition, in data set [3], the recovery at 8 h, 1 % w/v worked out at 93.8 ± 1.3%.

For `CNCCOc1cc(N)ccc1N` [Compound N13, 2-(2-(methylamino)ethoxy)benzene-1,4-diamine], the “sensitizing potential (DPRA)” value in data set [1] is “moderate sensitizers”. For the same molecule, the “release of IL-8” value in data set [4] is recorded as “slight elevation; also recorded: marginal release”. The concentration in solution in data set [2] (solubility at 24 h) was 38 mg/mL (≈ 210 mM). In addition, in data set [3], the “Cumulative amount at 8th hour” value amounted to 0.0106 μg/cm^2, the “Permeated through skin into receptor” value was <0.001 % of applied compound dose, the “Recovered in donor compartment” value is reported as 93.0 % of applied compound dose and the Recovered in skin is listed as 0.03 % of applied compound dose. In data set [3], the “Recovered in skin outside diffusion area” value is 0.003 % of applied compound dose; the “Recovered in skin swabs” value is 0.02 % of applied compound dose; the “Recovered on parafilm and in washes” value was 0.003 % of applied compound dose; the recovery at 8 h, 1 % w/v is 93.1 ± 1.2%. For the same molecule, the “release of IL-1α” value in data set [5] is “slight elevation; also recorded: marginal release”.

Take `COCCOc1cc(N)ccc1N` [Compound N7, 2-(2-methoxyethoxy)benzene-1,4-diamine]: the “sensitizing potential (DPRA)” value in data set [1] is “moderate sensitization”. Also, the “release of IL-8” value in data set [4] is recorded as “slight elevation; also recorded: marginal release”. Also, in data set [2], the solubility at 24 h lay in the range of 65 to 72 mg/mL (≈ 357 to 395 mM) and the Solubility was 62 mg/mL (≈ 340 mM). In addition, in data set [3], the “Cumulative amount at 8th hour” value was 0.0080 μg/cm^2 and 0.008 μg/cm^2; the “Cumulative amount comparison of PPD vs derivatives (times less than PPD)” value worked out at 675.0; the “Permeated through skin into receptor” value is given as <0.001 % of applied compound dose; the “Recovered in donor compartment” value is 97.5 % of applied compound dose. In addition, in data set [3], the Recovered in skin is 0.03 % of applied compound dose; the “Recovered in skin outside diffusion area” value is on record as 0.007 % of applied compound dose; the “Recovered in skin swabs” value is 0.09 % of applied compound dose; the “Recovered on parafilm and in washes” value is 0.001 % of applied compound dose. Moreover, the recovery at 8 h, 1 % w/v in data set [3] amounted to 97 ± 1.49%. Moreover, the “release of IL-1α” value in data set [5] is listed as “slight elevation; also recorded: marginal release”.
